This assay relates to L1210 leukemia ip in BDF1 mice, survival T/C. Put plainly: NCI In Vivo Anticancer Drug Screen. Data for tumor model L1210 Leukemia (intraperitoneal) in B6D2F1 (BDF1) mice. The conditions noted are these: endpoint: mean survival time, higher = longer survival. Summed up: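 Ratio derived from survival: compound-dosed mice over vehicle-dosed mice, all bearing a transplantable tumor.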

The mark [1] stands for this setting: dose: 100.0 mg/kg/injection, schedule: Q01DX009 (ip), vehicle: Klucel (hydroxypropylcellulose) (HPC).
Where [2] appears, read: dose: 100.0 mg/kg/injection, schedule: Q01DX001 (ip), vehicle: saline.
The mark [3] stands for this setting: dose: 200.0 mg/kg/injection, schedule: Q01DX001 (ip), vehicle: saline.
Where [4] appears, read: dose: 400.0 mg/kg/injection, schedule: Q01DX001 (ip), vehicle: saline.
[5] abbreviates: dose: 100.0 mg/kg/injection, schedule: Q01DX001 (ip), vehicle: carboxymethylcellulose (CMC).
The mark [6] stands for this setting: dose: 200.0 mg/kg/injection, schedule: Q01DX001 (ip), vehicle: carboxymethylcellulose (CMC).
Where [7] appears, read: dose: 400.0 mg/kg/injection, schedule: Q01DX001 (ip), vehicle: carboxymethylcellulose (CMC).
Where [8] appears, read: dose: 100.0 mg/kg/injection, schedule: Q04DX003 (ip), vehicle: Klucel (hydroxypropylcellulose) (HPC).
[9] abbreviates: dose: 200.0 mg/kg/injection, schedule: Q04DX003 (ip), vehicle: Klucel (hydroxypropylcellulose) (HPC).
Where [10] appears, read: dose: 400.0 mg/kg/injection, schedule: Q04DX003 (ip), vehicle: Klucel (hydroxypropylcellulose) (HPC).

“And” between values parts separate entries of the source, which are not always exact repeats. Equal values may be shown once. Inconclusive results and toxic doses are left out.

Turning to `Cc1cc(Cl)ccc1OC(=O)Nc1cccc2ccccc12`, the T/C is 97 % of control and 101 % of control (dose: 50.0 mg/kg/injection, schedule: Q01DX009 (ip), vehicle: carboxymethylcellulose (CMC)); 103 % of control (dose: 50.0 mg/kg/injection, schedule: Q04DX003 (ip), vehicle: carboxymethylcellulose (CMC)); 102 % of control and 104 % of control (dose: 100.0 mg/kg/injection, schedule: Q01DX009 (ip), vehicle: carboxymethylcellulose (CMC)); 101 % of control (dose: 100.0 mg/kg/injection, schedule: Q04DX002 (ip), vehicle: Klucel (hydroxypropylcellulose) (HPC)); 98 % of control and 91 % of control (dose: 100.0 mg/kg/injection, schedule: Q04DX002 (ip), vehicle: carboxymethylcellulose (CMC)); 100 % of control (dose: 100.0 mg/kg/injection, schedule: Q04DX003 (ip), vehicle: carboxymethylcellulose (CMC)). Moreover, the T/C reads like this: (dose: 200.0 mg/kg/injection, schedule: Q01DX009 (ip), vehicle: carboxymethylcellulose (CMC)) 94 % of control and 92 % of control; (dose: 200.0 mg/kg/injection, schedule: Q04DX002 (ip), vehicle: Klucel (hydroxypropylcellulose) (HPC)) 112 % of control; (dose: 200.0 mg/kg/injection, schedule: Q04DX002 (ip), vehicle: carboxymethylcellulose (CMC)) 98 % of control and 100 % of control; (dose: 200.0 mg/kg/injection, schedule: Q04DX003 (ip), vehicle: carboxymethylcellulose (CMC)) 95 % of control; (dose: 400.0 mg/kg/injection, schedule: Q04DX002 (ip), vehicle: Klucel (hydroxypropylcellulose) (HPC)) 104 % of control; (dose: 400.0 mg/kg/injection, schedule: Q04DX002 (ip), vehicle: carboxymethylcellulose (CMC)) 104 % of control.
For the compound `O/N=C\c1ccccc1`, the T/C was 92 % of control (dose: 50.0 mg/kg/injection, schedule: Q01DX009 (ip), vehicle: Klucel (hydroxypropylcellulose) (HPC)) and 86 % of control under setting [1].
Consider `CCCCCCCCCC(=S)N1CCN(c2ccccc2)CC1`, for which the T/C by setting is: under setting [2], 95 % of control; under setting [3], 93 % of control; under setting [4], 90 % of control.
For `CN(C)C(=O)OCC[N+](C)(C)CCCCCCCCCC[N+](C)(C)CCOC(=O)N(C)C`, the T/C reads like this: (dose: 0.63 mg/kg/injection, schedule: Q01DX009 (ip), vehicle: saline) 94 % of control; (dose: 1.25 mg/kg/injection, schedule: Q01DX009 (ip), vehicle: saline) 98 % of control; (dose: 2.5 mg/kg/injection, schedule: Q01DX009 (ip), vehicle: saline) 93 % of control; (dose: 5.0 mg/kg/injection, schedule: Q04DX003 (ip), vehicle: saline) 94 % of control.
For the compound `COC(=O)c1cc(C)cc(N(c2ccccc2[N+](=O)[O-])S(=O)(=O)c2ccc(C)cc2)c1C`, the T/C by setting is: under setting [5], 96 % of control; under setting [6], 104 % of control; under setting [7], 98 % of control.
Take `COc1ccc2c(=O)c3c(O)cc(OC)cc3oc2c1`: the T/C runs as follows: under setting [2], 97 % of control; under setting [3], 101 % of control; under setting [4], 87 % of control and 90 % of control.
In the case of `COc1ccc(-c2nc(SCc3ccccc3)[nH]c(=O)c2CCO)cc1`, the T/C is, setting by setting: under setting [8], 95 % of control; under setting [9], 88 % of control; under setting [10], 93 % of control.
Turning to `COc1ccc2nc3cc(Cl)ccc3c(NCC3(c4ccccc4)CCN(C)CC3)c2c1`, the T/C is, setting by setting: (dose: 12.5 mg/kg/injection, schedule: Q04DX003 (ip), vehicle: saline) 97 % of control; (dose: 25.0 mg/kg/injection, schedule: Q04DX003 (ip), vehicle: saline) 90 % of control.
On to `N#CC(C#N)=C/C=C/c1cccc([N+](=O)[O-])c1`, for which, for the setting “dose: 38.0 mg/kg/injection, schedule: Q01DX009 (ip), vehicle: saline”, the T/C was 102 % of control.
As to `Cc1nc2cccc3ccc4cc5ccccc5c1c4c32`, the T/C (dose: 100.0 mg/kg/injection, schedule: Q04DX003 (ip), vehicle: saline with Tween-80) is 89 % of control and the T/C (dose: 200.0 mg/kg/injection, schedule: Q04DX003 (ip), vehicle: saline with Tween-80) was 93 % of control.
Regarding `O=[N+]([O-])c1cc(S(=O)(=O)O)cc([N+](=O)[O-])c1NN(c1ccccc1)c1ccccc1`, the T/C is, setting by setting: (dose: 44.0 mg/kg/injection, schedule: Q04DX003 (ip), vehicle: other) 100 % of control; (dose: 87.0 mg/kg/injection, schedule: Q04DX003 (ip), vehicle: other) 92 % of control; (dose: 175.0 mg/kg/injection, schedule: Q04DX003 (ip), vehicle: other) 103 % of control.
Consider `CC(=O)CCc1ccccc1`, for which the T/C runs as follows: under setting [5], 101 % of control; under setting [6], 103 % of control; under setting [7], 101 % of control.
As to `CC(=O)Nc1ccc(/C=N\NC(=O)c2ccco2)cc1`, the T/C (dose: 100.0 mg/kg/injection, schedule: Q01DX001 (ip), vehicle: other) was 87 % of control; the T/C (dose: 200.0 mg/kg/injection, schedule: Q01DX001 (ip), vehicle: other) was 90 % of control; the T/C (dose: 400.0 mg/kg/injection, schedule: Q01DX001 (ip), vehicle: other) is 87 % of control.
Turning to `COc1ccc2c(c1)CCC1=C2CCC2C(=O)OC(=O)C12C` (stereo not drawn), the T/C is, setting by setting: under setting [1], 98 % of control; under setting [8], 90 % of control; (dose: 200.0 mg/kg/injection, schedule: Q01DX009 (ip), vehicle: Klucel (hydroxypropylcellulose) (HPC)) 95 % of control; under setting [9], 98 % of control; (dose: 400.0 mg/kg/injection, schedule: Q01DX009 (ip), vehicle: Klucel (hydroxypropylcellulose) (HPC)) 101 % of control; under setting [10], 97 % of control.
Take `NC(CSCc1ccc(N(CCCl)CCCl)cc1)C(=O)O` (stereo not drawn): the T/C (dose: 2.5 mg/kg/injection, schedule: Q01DX Z (ip), vehicle: carboxymethylcellulose (CMC)) was 124 % of control; the T/C (dose: 4.0 mg/kg/injection, schedule: Q01DX Z (ip), vehicle: other) is 112 % of control; the T/C (dose: 7.0 mg/kg/injection, schedule: Q01DX009 (ip), vehicle: saline) was 109 % of control; the T/C (dose: 7.0 mg/kg/injection, schedule: Q01DX Z (ip), vehicle: saline) is 111 % of control; the T/C (dose: 10.0 mg/kg/injection, schedule: Q01DX001 (ip), vehicle: carboxymethylcellulose (CMC)) was 87 % of control; the T/C (dose: 10.0 mg/kg/injection, schedule: Q01DX Z (ip), vehicle: carboxymethylcellulose (CMC)) is 157 % of control. Besides, the T/C by setting is: (dose: 11.0 mg/kg/injection, schedule: Q01DX009 (ip), vehicle: saline) 103 % of control; (dose: 11.0 mg/kg/injection, schedule: Q01DX Z (ip), vehicle: saline) 118 % of control; (dose: 16.0 mg/kg/injection, schedule: Q01DX009 (ip), vehicle: saline) 111 % of control; (dose: 16.0 mg/kg/injection, schedule: Q01DX Z (ip), vehicle: saline) 114 % of control; (dose: 20.0 mg/kg/injection, schedule: Q01DX Z (ip), vehicle: carboxymethylcellulose (CMC)) 152 % of control and 168 % of control; (dose: 24.0 mg/kg/injection, schedule: Q01DX009 (ip), vehicle: saline) 103 % of control. Further, the T/C by setting is: (dose: 24.0 mg/kg/injection, schedule: Q01DX Z (ip), vehicle: saline) 124 % of control; (dose: 30.0 mg/kg/injection, schedule: Q01DX Z (ip), vehicle: other) 123 % of control; (dose: 32.0 mg/kg/injection, schedule: Q01DX009 (ip), vehicle: saline) 113 % of control; (dose: 40.0 mg/kg/injection, schedule: Q01DX001 (ip), vehicle: carboxymethylcellulose (CMC)) 95 % of control; (dose: 40.0 mg/kg/injection, schedule: Q01DX Z (ip), vehicle: carboxymethylcellulose (CMC)) 100 % of control; (dose: 80.0 mg/kg/injection, schedule: Q01DX001 (ip), vehicle: carboxymethylcellulose (CMC)) 91 % of control.

The values are drawn from PubChem BioAssay AID248 (DTP/NCI, 2004).
